Columns and labels:
Format in all cases: in vivo
Polygonum convolvulus [1] = assay: Pre-emergence herbicidal effect; conditions: 1280 g/ha, visual assessment after 3 weeks
Excerpt: (§1) 1. Pre-Emergence Herbicidal Effect and Crop Plant Compatibility Seeds of monocotyledonous and dicotyledonous weed plants and crop plants are placed in wood-fiber pots in sandy loam and covered with soil. The inventive compounds, formulated in the form of wettable powders (WP) or as emulsion concentrates (EC), are then applied to the surface of the covering soil as an aqueous suspension or emulsion at a water application rate of 600 to 800 I/ha (converted) with addition of 0.2% wetting agent. After the treatment, the pots are placed in a greenhouse and kept under good growth conditions for the test plants. The damage to the test plants is assessed visually after a test period of 3 weeks by comparison with untreated controls (herbicidal activity in percent (%): 100% action=the plants have died, 0% action=like control plants). POLCO: Polygonum convolvulus SETVI: Setaria viridis

Setaria viridis = assay: Pre-emergence herbicidal effect; conditions: 1280 g/ha, visual assessment after 3 weeks
Excerpt: as §1

Echinochloa crus-galli [2] = assay: Pre-emergence herbicidal effect; conditions: 1280 g/ha, visual assessment after 3 weeks
Excerpt: as §1, with “AMARE: Amaranthus retroflexus ECHCG: Echinochloa crus-galli” for “POLCO: Polygonum convolvulus SETVI: Setaria viridis”

Amaranthus retroflexus = assay: Pre-emergence herbicidal effect; conditions: 1280 g/ha, visual assessment after 3 weeks
Excerpt: as §1, with “AMARE: Amaranthus retroflexus ECHCG: Echinochloa crus-galli” for “POLCO: Polygonum convolvulus SETVI: Setaria viridis”

Polygonum convolvulus [3] = assay: Post-emergence herbicidal effect; conditions: 1280 g/ha, visual rating after about 3 weeks
Method: (§2) POLCO: Polygonum convolvulus SETVI: Setaria viridis 2. Post-Emergence Herbicidal Effect and Crop Plant Compatibility Seeds of monocotyledonous and dicotyledonous weed and crop plants are placed in sandy loam in wood-fiber pots, covered with soil and cultivated in a greenhouse under good growth conditions. 2 to 3 weeks after sowing, the test plants are treated at the one-leaf stage. The compounds according to the invention, formulated in the form of wettable powders (WP) or as emulsion concentrates (EC), are then sprayed as aqueous suspension or emulsion at a water application rate of 600 to 800 I/ha (converted) with the addition of 0.2% of wetting agent onto the green parts of the plants. After the test plants have been kept in the greenhouse under optimum growth conditions for about 3 weeks, the activity of the preparations is rated visually in comparison to untreated controls (herbicidal activity in percent (%): 100% activity=the plants have died, 0% activity=like control plants).

Veronica persica = assay: Pre-emergence herbicidal effect; conditions: 1280 g/ha, visual assessment after 3 weeks
Excerpt: as §1, with “STEME: Stellaria media VERPE: Veronica persica” for “POLCO: Polygonum convolvulus SETVI: Setaria viridis”

Stellaria media = assay: Pre-emergence herbicidal effect; conditions: 1280 g/ha, visual assessment after 3 weeks
Excerpt: as §1, with “STEME: Stellaria media VERPE: Veronica persica” for “POLCO: Polygonum convolvulus SETVI: Setaria viridis”

Viola tricolor = assay: Pre-emergence herbicidal effect; conditions: 1280 g/ha, visual assessment after 3 weeks
Excerpt: as §1, with “VIOTR: Viola tricolor” for “POLCO: Polygonum convolvulus SETVI: Setaria viridis”

Abutilon theophrasti = assay: Post-emergence herbicidal effect; conditions: 1280 g/ha, visual rating after about 3 weeks
Method: as §2, with “ABUTH: Abutilon theophrasti ALOMY: Alopecurus myosuroides” for “POLCO: Polygonum convolvulus SETVI: Setaria viridis”

Echinochloa crus-galli [4] = assay: Post-emergence herbicidal effect; conditions: 1280 g/ha, visual rating after about 3 weeks
Method: as §2, with “AMARE: Amaranthus retroflexus ECHCG: Echinochloa crus-galli” for “POLCO: Polygonum convolvulus SETVI: Setaria viridis”

| Structure (SMILES) | herbicidal activity POLCO (Polygonum convolvulus [1]) | herbicidal activity SETVI (Setaria viridis) | herbicidal activity ECHCG (Echinochloa crus-galli [2]) | herbicidal activity AMARE (Amaranthus retroflexus) | herbicidal activity POLCO (Polygonum convolvulus [3]) | herbicidal activity VERPE (Veronica persica) | herbicidal activity STEME (Stellaria media) | herbicidal activity VIOTR (Viola tricolor) | herbicidal activity ABUTH (Abutilon theophrasti) | herbicidal activity ECHCG (Echinochloa crus-galli [4]) |
| --- | --- | --- | --- | --- | --- | --- | --- | --- | --- | --- |
| Cc1ccc2c(c1)[C@H](Nc1cnc(S(C)(=O)=O)nc1)[C@@H](C)C2 [compound 134] | 100% | 100% | 100% | 100% | 90% | 100% | 100% | 100% | 90% | 90% |
| CCc1ccc2c(c1)C(Nc1cnc(S(C)(=O)=O)nc1C(=O)O)CCO2 (racemic) [compound 68] | 100% | 100% | 100% | 100% | 80% | 100% | 100% | 100% | 90% | 90% |
| CCc1ccc2c(c1)C(Nc1cnc(S(C)(=O)=O)nc1)CCO2 (racemic) [compound 65] | 100% | 100% | 100% | 100% | 80% | 100% | 100% | 100% | 90% | 100% |

From US9375002B2, “5-aminopyrimidine derivatives and use thereof for combating undesired plant growth” (BAYER INTELLECTUAL PROPERTY GMBH, priority 2012, dated 2016)
